Experimental data from patent US6906205B2, “Spiro and dispiro 1,2,4-trioxolane antimalarials” (Medicines for Malaria Venture MMV, priority 2002, dated 2005).

What was measured:
P. berghei ANKA strain [1] = experiment: treatment: 3x3 mg/kg and 3x1 mg/kg po divided doses in infected mice; assay type: in vivo, Plasmodium berghei; details: for Activity (%) p.o. SSV: percent reduction of parasitemia day 4
Summary of the method: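 NMRI mice infected i.v. with 2×10^7 P. berghei ANKA-parasitized erythrocytes on day 0, then dosed orally in SSV vehicle at 3×3 or 3×1 mg/kg on days 1–3. Day-4 Giemsa smears gave percent parasitemia reduction versus untreated controls; survival to day 30 counted as cure.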

P. berghei ANKA strain [2] = experiment: prophylactic activity, single 100 mg/kg po dose before infection; assay type: in vivo, Plasmodium berghei; details: reduction of parasitemia day 3 post-infection
Protocol: Moro NMRI male mice (Fü Albino specific pathogen free) weighing 18±2 g were infected intravenously (i.v.) with 2×10^7 P. berghei ANKA strain-infected erythrocytes from donor mice on day 0 of the experiment. From donor mice with circa 30% parasitemia, heparinized blood was taken and diluted in physiological saline to 10^8 parasitized erythrocytes per ml. An aliquot (0.2 ml) of this suspension was injected i.v. into experimental and control groups of mice. In untreated control mice, parasitemia rose regularly to 40 to 50% by day 3 post-infection and 70 to 80% by day 4 post-infection. The mice died between days 5 and 7 post-infection. Throughout the experiments, mice were kept in groups of three or five animals in Makrolon type II cages in an air-conditioned animal room at 22 to 23° C. A diet with p-aminobenzoic acid (PABA) of 45 mg (NAFAG FUTTER© food N^o 9009 PAB-45) per kg of body weight, and tap water is available ad libitum.
OZ compounds were prepared at an appropriate concentration, either as a solution or a suspension containing SSV (0.5% w/v CMC, 0.5% v/v benzyl alcohol, 0.4% v/v Tween 80, and 0.9% w/v sodium chloride in water). They were administered per os (p.o.) in a total volume of 0.01 ml per gram of mouse. The activity of the compound was determined by a variety of methods outlined in subsequent sections. Survival time was also recorded, and survival to day 30 post-infection was considered to be a cure.
Prophylactic activities of the compounds were compared after administering po single dose of 100 mg/kg to different groups of five animals at various times before infection. All groups including an untreated control group, were then infected at the same time. Parasitemia was determined for each animal on day 3 post-infection, and percent of reduction of the level of parasitemia compared to levels for animals given no drug is determined.

P. berghei ANKA strain [3] = experiment: treatment: 3x10 mg/kg p.o. divided dose vs 1x30 mg/kg po single dose in infected mice; assay type: in vivo, Plasmodium berghei; details: for Activity (%) p.o. SSV: percent reduction of parasitemia day 4; for Cures: survival to day 30 post-infection = cure, cured/treated mice
Protocol: Moro NMRI male mice (Fü Albino specific pathogen free) weighing 18±2 g were infected intravenously (i.v.) with 2×10^7 P. berghei ANKA strain-infected erythrocytes from donor mice on day 0 of the experiment. From donor mice with circa 30% parasitemia, heparinized blood was taken and diluted in physiological saline to 10^8 parasitized erythrocytes per ml. An aliquot (0.2 ml) of this suspension was injected i.v. into experimental and control groups of mice. […] Throughout the experiments, mice were kept in groups of three or five animals in Makrolon type II cages in an air-conditioned animal room at 22 to 23° C.
They were administered per os (p.o.) in a total volume of 0.01 ml per gram of mouse. The activity of the compound was determined by a variety of methods outlined in subsequent sections. Survival time was also recorded, and survival to day 30 post-infection was considered to be a cure.
The first experiment conducted consisted of administration of a divided 3×10 mg/kg p.o. dose administered on days 1, 2, and 3 post-infection vs. a single 1×30 mg/kg po dose administered on day 1 post-infection. On day 4 post-infection, blood smears of all animals were prepared and stained with Giemsa. […] Compounds were administered orally in the SSV vehicle.

[4] = tested on: ANKA strain of Plasmodium berghei; experiment: single dose ED50/ED90/ED99 determinations in infected mice; assay type: in vivo; details: single dose po in SSV, mice, percent reduction in parasitemia on day three post-infection
Protocol: In the single dose ED50/ED90/ED99 determinations, Moro SPF or NMRI mice (group of three) infected with the ANKA strain of Plasmodium berghei were treated on day one post-infection. […] The SSV consists of 0.5% w/v CMC, 0.5% v/v benzyl alcohol, 0.4% v/v Tween 80, and 0.9% w/v sodium chloride in water. Antimalarial activity was measured by percent reduction in parasitemia on day three post-infection. The ED50/ED90 values were calculated by nonlinear fitting.

[5] = 3 × 1 mg/kg days 1, 2, 3 post-infection
[6] = 3 × 3 mg/kg days 1, 2, 3 post-infection
[7] = single 100 mg/kg po 24 h before infection
[8] = single 100 mg/kg po 48 h before infection
[9] = single 100 mg/kg po 72 h before infection
[10] = 3 × 10 mg/kg days 1, 2, 3 post-infection
[11] = 1 × 30 mg/kg single dose day 1 post-infection

| Compound | Survival (days) p.o. SSV (P. berghei ANKA strain [1]; [5]) [days] | Activity (%) p.o. SSV (P. berghei ANKA strain [1]; [5]) [%] | Survival (days) p.o. SSV (P. berghei ANKA strain [1]; [6]) [days] | Activity (%) p.o. SSV (P. berghei ANKA strain [1]; [6]) [%] | Prophylactic Activity (%) (P. berghei ANKA strain [2]; [7]) | Prophylactic Activity (%) (P. berghei ANKA strain [2]; [8]) | Prophylactic Activity (%) (P. berghei ANKA strain [2]; [9]) | Prophylactic Activity (%) (P. berghei ANKA strain [2]; single 100 mg/kg po at 0 h) | Survival (days) p.o. SSV (P. berghei ANKA strain [3]; [10]) [days] | Activity (%) p.o. SSV (P. berghei ANKA strain [3]; [10]) [%] | Survival (days) p.o. SSV (P. berghei ANKA strain [3]; [11]) [days] | Activity (%) p.o. SSV (P. berghei ANKA strain [3]; [11]) [%] | Cures (P. berghei ANKA strain [3]; 1 × 30 mg/kg) | ED99 [4] [mg/kg] | Cures (P. berghei ANKA strain [3]; 3 × 10 mg/kg) |
| --- | --- | --- | --- | --- | --- | --- | --- | --- | --- | --- | --- | --- | --- | --- | --- |
| CC(C)(N)C(=O)NCC1CCC2(CC1)OOC1(O2)C2CC3CC(C2)CC1C3 (stereo not drawn) [compound 281] | 13 | 92 | 12.4 | 100 | 99.23 | 45 | 8 | 100 | – | – | – | – | – | – | – |
| Cc1ccc(S(=O)(=O)O)cc1.NC1CCC(NC(=O)CC2CCC3(CC2)OOC2(O3)C3CC4CC(C3)CC2C4)CC1 (stereo not drawn) [compound 315] | 12.2 | 81 | 22 | 99.99 | – | – | – | – | >30 | 100 | – | – | – | – | – |
| CS(=O)(=O)O.c1cc(OCC2CCC3(CC2)OOC2(O3)C3CC4CC(C3)CC2C4)ccn1 (stereo not drawn) [compound 301] | 8.8 | 58 | 23 | 100 | – | – | – | – | >30 | 100 | – | – | – | – | – |
| CS(=O)(=O)O.NCC(=O)NCC1CCC2(CC1)OOC1(O2)C2CC3CC(C2)CC1C3 (stereo not drawn) [compound 271] | 8.8 | 87 | 16.2 | 99.99 | 100 | 99.98 | 99.89 | 100 | 27.8 | 100 | 14 | 99.97 | 0/5 | – | – |
| CCN(CC)CCCC(C)Nc1ccnc2cc(Cl)ccc12 (stereo not drawn) [CQ, chloroquine, reference compound] | – | – | – | – | – | – | – | – | – | – | – | – | 0/5 | 5.9 | 0/5 |
| Cc1ccc(S(=O)(=O)O)cc1.O=C(CC1CCC2(CC1)OOC1(O2)C2CC3CC(C2)CC1C3)N1CCNCC1 (stereo not drawn) [compound 279] | 8.8 | 83 | 14.8 | 100 | 97 | 27 | 14 | 100 | 25.4 | 100 | 14.8 | 99.95 | 0/5 | – | – |
| CS(=O)(=O)O.NCC1CCC2(CC1)OOC1(O2)C2CC3CC(C2)CC1C3 (stereo not drawn) [compound 209] | 9.4 | 99.51 | 16.4 | 100 | 100 | 99.9 | 99.92 | 100 | >30 | 100 | >30 | 100 | 0/5 | – | – |
| CC(C)(N)CNC(=O)CC1CCC2(CC1)OOC1(O2)C2CC3CC(C2)CC1C3.Cc1ccc(S(=O)(=O)O)cc1 (stereo not drawn) [compound 277] | 9.4 | 83 | 14 | 100 | 25 | 7 | 9 | 100 | 27.6 | 100 | 10.4 | 99.92 | 0/5 | – | – |
